“Also recorded” adds a separate entry of the source.
Columns and labels:
[1] = target: SARS-CoV-2 3CLpro (Severe acute respiratory syndrome coronavirus 2, UniProt P0DTD1); assay: biochemical; format: biochemical
[2] = target: SARS-CoV 3CLpro (Severe acute respiratory syndrome coronavirus, UniProt P0C6X7); assay: biochemical; format: biochemical
[3] = test system: SARS-CoV-2 in infected Vero cells; conditions: cited from earlier work

Row | Compound | inhibitory effect in library screening against SARS-CoV-2 3CLpro (in words) [1] | inhibitory effect in library screening against SARS-CoV 3CLpro (in words) [2] | IC50 [2] [µM] | also measured
1 | Cc1cccc(C)c1OCC(=O)N[C@@H](Cc1ccccc1)[C@@H](O)C[C@H](Cc1ccccc1)NC(=O)[C@H](C(C)C)N1CCCNC1=O [Lopinavir] | did not block the proteolytic activity |  |  | 
2 | Nc1nc(O)c2ncn(COC(CO)CO)c2n1 [No 1-3, Ganciclovir] | little | little |  | 
3 | CC(C)OC(=O)[C@H](C)N[P@](=O)(OC[C@H]1O[C@@H](n2ccc(=O)[nH]c2=O)[C@](C)(F)[C@@H]1O)Oc1ccccc1 [No 2-3, Sofosbuvir] | little | little |  | 
4 | C=C1[C@H](CO)[C@@H](O)C[C@@H]1n1cnc2c(=O)[nH]c(N)nc21 [No 4-3, Entecavir] | little | little |  | 
5 | Nc1ccn([C@@H]2CS[C@H](CO)O2)c(=O)n1 [No 4-4, Lamivudine] | little | little |  | 
6 | CCN(CC)CCCC(C)Nc1ccnc2cc(Cl)ccc12 (centres unmarked) [No 6-5, Chloroquine] | little | little |  | 
7 | CCN(CCO)CCCC(C)Nc1ccnc2cc(Cl)ccc12 (centres unmarked) [No 6-6, Hydroxychloroquine] | little | little |  | 
8 | Nc1nc(NC2CC2)c2ncn([C@H]3C=C[C@@H](CO)C3)c2n1 [abacavir, Abacavir] |  |  | 24.7 | IC50 [1]: 12.6 µM
9 | Nc1ccn(C[C@@H](CO)OCP(=O)(O)O)c(=O)n1 [cidofovir, Cidofovir] |  |  | > 47 | IC50 [1]: > 36 µM
10 | CC(C)(C)NC(=O)[C@@H]1CN(Cc2cccnc2)CCN1C[C@@H](O)C[C@@H](Cc1ccccc1)C(=O)N[C@H]1c2ccccc2C[C@H]1O [indinavir, Indinavir] |  |  | 31.5 | 
11 | CCC(CC)COC(=O)[C@H](C)N[P@](=O)(OC[C@H]1O[C@@](C#N)(c2ccc3c(N)ncnn23)[C@H](O)[C@@H]1O)Oc1ccccc1 [remdesivir, Remdesivir] | minor inhibitory activity |  |  | 
12 | CC(C)c1nc(CN(C)C(=O)N[C@H](C(=O)N[C@@H](Cc2ccccc2)C[C@H](O)[C@H](Cc2ccccc2)NC(=O)OCc2cncs2)C(C)C)cs1 [ritonavir, Ritonavir] | did not block the proteolytic activity; also recorded: did not show clear inhibitory activity |  |  | 
13 | CCCc1nn(C)c2c(=O)[nH]c(-c3cc(S(=O)(=O)N4CCN(C)CC4)ccc3OCC)nc12 [sildenafil, Sildenafil] |  |  | 12.5 | IC50 [1]: 8.25 µM
14 | CN1CC(=O)N2[C@H](c3ccc4c(c3)OCO4)c3[nH]c4ccccc4c3C[C@@H]2C1=O [tadalafil, Tadalafil] | did not display meaningful inhibitory activity | did not display meaningful inhibitory activity |  | 
15 | C[C@H](Cn1cnc2c(N)ncnc21)OCP(=O)(O)O [tenofovir, Tenofovir] |  |  | 14.2 | killing of SARS-CoV-2 in infected Vero cells [3]: kill SARS-CoV-2
